Measurements reported in patent publication US20250143299A1, “METHODS AND COMPOSITIONS FOR CONTROLLING PESTS IN VEGETABLES” (Globachem NV, priority 2022, published 2025).

Tests used:
Type in all cases: in vivo
Conditions in all cases: appl. AB
Pea [1] = assay: Example 5 phytotoxicity, chlorosis (PHYCHL) on pea; parameters: scale not given here
Method: The trial was conducted on peas, variety Batuta, 4 replicates per plot. A water volume of 200 L water/ha was used for each application. Two applications were made, Application A was made at first infestation and Application B was made 14d later. Each plot at least 12 m^2.

Tomato = assay: Example 2 phytotoxicity, necrosis/burn (PHYNEC) on tomato; parameters: key: % visual leaf necrosis/discoloration vs untreated plants
Description: “Low Phytotoxicity” of pelargonic acid, as used herein means that the toxic effect on plants is absent or at such a level so as not to adversely impact the growth and/or yield of the plant under a given set of test conditions, e.g., at a given concentration of pelargonic acid. Phytotoxic effects may be measured in a number of different ways, for example, according to the principals set out in OEPP/EPPO Bulletin (2014) 44(3), 265-273 “PP 1/135 (4) Phytotoxicity assessment”. The phytotoxic effect on plants may be assessed visually as a function of the percentage of discoloration to the leaves and/or the appearance of necrosis. When the pelargonic acid compositions are applied to the foliage of the vegetable plants in accordance with the teachings herein, will typically result in a level of phytotoxicity of less than 20%, preferably less than 15%, more preferably less than 10% necrosis of the leaves in comparison to untreated plants. Preferred uses of the invention will typically result in phytotoxicity of 7% or less, whilst the most preferred uses will typically result in phytotoxicity of 5% or less. The above values are approximate as any purely visual assessment is likely to contain a degree of subjectivity.
Trial conducted in 4 replicates on plots of 25 plants each. Application was made at the occurrence of the insects.

Diabrotica speciosa = assay: Example 11 Trial 2 potato, Diabrotica speciosa (DIABSC) control
Description: Potatoes—Diabrotica speciosa (Cucurbit Beetle)—DIABSC A water volume of 400 L water/ha was used for each application. Application A made at the occurrence of the insects; application B was made 7 days later. Each plot was 15 m^2. 5.15 insects per 20 plants were present at the time of application.

Potato = assay: Example 8 Trial 1 phytotoxicity, general injury (PHYGEN) on potato; parameters: scale not given here
Description: Trial 1: Potatoes, variety Lady Amarilla, 4 replicates per plot, each plot at least 25 m^2. A water volume of 200 L water/ha was used for each application. Two applications were made at a 14d interval.
Application made at the occurrence of the insects. Application A was made at Stage BBCH 36, application B was made 14 days later at Stage BBCH 51.

Pea [2] = assay: Example 6 phytotoxicity, necrosis/burn (PHYNEC) on pea; parameters: scale not given here
Description: Trial conducted on peas, variety Navarro, 4 replicates per plot. Each plot was at least 12 m^2, a water volume of 200 L water per ha was used for the application.
Insects present at the time of application A: 106 aphids per 20 shoots. The stage of the crop at application A was BBCH 75-77, and at application B, (14 DAA) BBCH 79-81.

CCCCCCCCC(=O)O [PA, pelargonic acid]
3: Phytotoxicity - Chlorosis (PHYCHL) (Pea [1]; 975 g/ha (1.5 L/ha), Same day B) | Phytotoxicity - Necrosis/burn (PHYNEC) (Pea [2]; 1300 g/ha (2.0 L/ha), 7 DAA) | Phytotoxicity - Necrosis/burn (PHYNEC) (Pea [2]; 1300 g/ha (2.0 L/ha), 14 DAA)
37.5: Phytotoxicity - Necrosis/burn (PHYNEC) (Pea [2]; 2600 g/ha (4.0 L/ha), 7 DAA) | Phytotoxicity - Necrosis/burn (PHYNEC) (Pea [2]; 2600 g/ha (4.0 L/ha), 14 DAA)
1.3: Phytotoxicity - General Injury (PHYGEN) (Potato; 975 g/ha (1.5 L/ha), 7 DAA)
100.00d % UNCK: # Insects, 20 plants (Diabrotica speciosa; 975 g/ha (1.5 L/ha), 7 DAA)
61.90bc % UNCK: # Insects, 20 plants (Diabrotica speciosa; 650 g/ha (1 L/ha), 3 DAA)
5: Phytotoxicity - Chlorosis (PHYCHL) (Pea [1]; 1300 g/ha (2.0 L/ha), 3 DAA) | Phytotoxicity - Chlorosis (PHYCHL) (Pea [1]; 1300 g/ha (2.0 L/ha), Same day A) | Phytotoxicity - General Injury (PHYGEN) (Potato; 2600 g/ha (4.0 L/ha), 8 DAB)
38.10b % UNCK: # Insects, 20 plants (Diabrotica speciosa; 487.5 g/ha (0.75 L/ha), 3 DAA)
20: Phytotoxicity - Chlorosis (PHYCHL) (Pea [1]; 2600 g/ha (4.0 L/ha), 7 DAA) | Phytotoxicity - Chlorosis (PHYCHL) (Pea [1]; 2600 g/ha (4.0 L/ha), 14 DAA) | Phytotoxicity - Chlorosis (PHYCHL) (Pea [1]; 2600 g/ha (4.0 L/ha), Same day B)
2: Phytotoxicity - Chlorosis (PHYCHL) (Pea [1]; 975 g/ha (1.5 L/ha), 3 DAA) | Phytotoxicity - Chlorosis (PHYCHL) (Pea [1]; 975 g/ha (1.5 L/ha), 3 DAB) | Phytotoxicity - Chlorosis (PHYCHL) (Pea [1]; 975 g/ha (1.5 L/ha), 7 DAA) | Phytotoxicity - Chlorosis (PHYCHL) (Pea [1]; 975 g/ha (1.5 L/ha), 7 DAB) | Phytotoxicity - Chlorosis (PHYCHL) (Pea [1]; 975 g/ha (1.5 L/ha), 14 DAA) | Phytotoxicity - Chlorosis (PHYCHL) (Pea [1]; 2600 g/ha (4.0 L/ha), 14 DAB)
13: Phytotoxicity - Chlorosis (PHYCHL) (Pea [1]; 2600 g/ha (4.0 L/ha), 7 DAB)
4.5: Phytotoxicity - General Injury (PHYGEN) (Potato; 2600 g/ha (4.0 L/ha), 3 DAB)
6: Phytotoxicity - Chlorosis (PHYCHL) (Pea [1]; 1300 g/ha (2.0 L/ha), 3 DAB) | Phytotoxicity - Chlorosis (PHYCHL) (Pea [1]; 1300 g/ha (2.0 L/ha), 7 DAA) | Phytotoxicity - Chlorosis (PHYCHL) (Pea [1]; 1300 g/ha (2.0 L/ha), 7 DAB) | Phytotoxicity - General Injury (PHYGEN) (Potato; 2600 g/ha (4.0 L/ha), 7 DAA)
100.00c % UNCK: # Insects, 20 plants (Diabrotica speciosa; 975 g/ha (1.5 L/ha), 7 DAB) | # Insects, 20 plants (Diabrotica speciosa; 975 g/ha (1.5 L/ha), 10 DAB)
1: Phytotoxicity - General Injury (PHYGEN) (Potato; 1300 g/ha (2.0 L/ha), 3 DAB) | Phytotoxicity - General Injury (PHYGEN) (Potato; 1300 g/ha (2.0 L/ha), 7 DAA) | Phytotoxicity - General Injury (PHYGEN) (Potato; 1300 g/ha (2.0 L/ha), 8 DAB)
15: Phytotoxicity - Chlorosis (PHYCHL) (Pea [1]; 2600 g/ha (4.0 L/ha), 3 DAA) | Phytotoxicity - Chlorosis (PHYCHL) (Pea [1]; 2600 g/ha (4.0 L/ha), Same day A)
4: Phytotoxicity - Chlorosis (PHYCHL) (Pea [1]; 1300 g/ha (2.0 L/ha), 14 DAA) | Phytotoxicity - Chlorosis (PHYCHL) (Pea [1]; 1300 g/ha (2.0 L/ha), Same day B) | Phytotoxicity - General Injury (PHYGEN) (Potato; 2600 g/ha (4.0 L/ha), 15 DAA)
23: Phytotoxicity - Chlorosis (PHYCHL) (Pea [1]; 2600 g/ha (4.0 L/ha), 3 DAB)
0: Phytotoxicity - Chlorosis (PHYCHL) (Pea [1]; 585 g/ha (0.9 L/ha), 3 DAA) | Phytotoxicity - Chlorosis (PHYCHL) (Pea [1]; 585 g/ha (0.9 L/ha), 3 DAB) | Phytotoxicity - Chlorosis (PHYCHL) (Pea [1]; 585 g/ha (0.9 L/ha), 7 DAA) | Phytotoxicity - Chlorosis (PHYCHL) (Pea [1]; 585 g/ha (0.9 L/ha), 7 DAB) | Phytotoxicity - Chlorosis (PHYCHL) (Pea [1]; 585 g/ha (0.9 L/ha), 14 DAA) | Phytotoxicity - Chlorosis (PHYCHL) (Pea [1]; 585 g/ha (0.9 L/ha), 14 DAB) | Phytotoxicity - Chlorosis (PHYCHL) (Pea [1]; 585 g/ha (0.9 L/ha), Same day A) | Phytotoxicity - Chlorosis (PHYCHL) (Pea [1]; 585 g/ha (0.9 L/ha), Same day B) | Phytotoxicity - Chlorosis (PHYCHL) (Pea [1]; 975 g/ha (1.5 L/ha), 14 DAB) | Phytotoxicity - Chlorosis (PHYCHL) (Pea [1]; 975 g/ha (1.5 L/ha), Same day A) | Phytotoxicity - Chlorosis (PHYCHL) (Pea [1]; 1300 g/ha (2.0 L/ha), 14 DAB) | Phytotoxicity - Necrosis/burn (PHYNEC) (Tomato; 1300 g/ha (2 L/ha), 3 DAA) | Phytotoxicity - Necrosis/burn (PHYNEC) (Tomato; 1300 g/ha (2 L/ha), 7 DAA) | Phytotoxicity - Necrosis/burn (PHYNEC) (Tomato; 1300 g/ha (2 L/ha), 7 DAB) | Phytotoxicity - Necrosis/burn (PHYNEC) (Tomato; 1300 g/ha (2 L/ha), 14 DAA) | Phytotoxicity - Necrosis/burn (PHYNEC) (Tomato; 1950 g/ha (3 L/ha), 3 DAA) | Phytotoxicity - Necrosis/burn (PHYNEC) (Tomato; 1950 g/ha (3 L/ha), 7 DAA) | Phytotoxicity - Necrosis/burn (PHYNEC) (Tomato; 1950 g/ha (3 L/ha), 7 DAB) | Phytotoxicity - Necrosis/burn (PHYNEC) (Tomato; 1950 g/ha (3 L/ha), 14 DAA) | Phytotoxicity - Necrosis/burn (PHYNEC) (Tomato; 2600 g/ha (4 L/ha), 3 DAA) | Phytotoxicity - Necrosis/burn (PHYNEC) (Tomato; 2600 g/ha (4 L/ha), 7 DAA) | Phytotoxicity - Necrosis/burn (PHYNEC) (Tomato; 2600 g/ha (4 L/ha), 7 DAB) | Phytotoxicity - Necrosis/burn (PHYNEC) (Tomato; 2600 g/ha (4 L/ha), 14 DAA) | Phytotoxicity - Necrosis/burn (PHYNEC) (Tomato; 5200 g/ha (8 L/ha), 3 DAA) | Phytotoxicity - Necrosis/burn (PHYNEC) (Tomato; 5200 g/ha (8 L/ha), 7 DAA) | Phytotoxicity - Necrosis/burn (PHYNEC) (Tomato; 5200 g/ha (8 L/ha), 7 DAB) | Phytotoxicity - Necrosis/burn (PHYNEC) (Tomato; 5200 g/ha (8 L/ha), 14 DAA) | Phytotoxicity - General Injury (PHYGEN) (Potato; 585 g/ha (0.9 L/ha), 3 DAB) | Phytotoxicity - General Injury (PHYGEN) (Potato; 585 g/ha (0.9 L/ha), 7 DAA) | Phytotoxicity - General Injury (PHYGEN) (Potato; 585 g/ha (0.9 L/ha), 8 DAB) | Phytotoxicity - General Injury (PHYGEN) (Potato; 585 g/ha (0.9 L/ha), 15 DAA) | Phytotoxicity - General Injury (PHYGEN) (Potato; 975 g/ha (1.5 L/ha), 3 DAB) | Phytotoxicity - General Injury (PHYGEN) (Potato; 975 g/ha (1.5 L/ha), 8 DAB) | Phytotoxicity - General Injury (PHYGEN) (Potato; 975 g/ha (1.5 L/ha), 15 DAA) | Phytotoxicity - General Injury (PHYGEN) (Potato; 1300 g/ha (2.0 L/ha), 15 DAA) | Phytotoxicity - Necrosis/burn (PHYNEC) (Pea [2]; 585 g/ha (0.9 L/ha), 7 DAA) | Phytotoxicity - Necrosis/burn (PHYNEC) (Pea [2]; 585 g/ha (0.9 L/ha), 14 DAA) | Phytotoxicity - Necrosis/burn (PHYNEC) (Pea [2]; 975 g/ha (1.5 L/ha), 7 DAA) | Phytotoxicity - Necrosis/burn (PHYNEC) (Pea [2]; 975 g/ha (1.5 L/ha), 14 DAA)
25.00ab % UNCK: # Insects, 20 plants (Diabrotica speciosa; 487.5 g/ha (0.75 L/ha), 3 DAB) | # Insects, 20 plants (Diabrotica speciosa; 650 g/ha (1 L/ha), 3 DAB)
